From patent publication US7705153B2, “Bipiperdine derivatives useful as CCR3 antagonists” (Schering Corporation, priority 2004, dated 2010) come the findings set out here.

Experiment [1] deals with T1, human CCR3 (Homo sapiens, UniProt P51677).
T1 sequence (P51677 1-355): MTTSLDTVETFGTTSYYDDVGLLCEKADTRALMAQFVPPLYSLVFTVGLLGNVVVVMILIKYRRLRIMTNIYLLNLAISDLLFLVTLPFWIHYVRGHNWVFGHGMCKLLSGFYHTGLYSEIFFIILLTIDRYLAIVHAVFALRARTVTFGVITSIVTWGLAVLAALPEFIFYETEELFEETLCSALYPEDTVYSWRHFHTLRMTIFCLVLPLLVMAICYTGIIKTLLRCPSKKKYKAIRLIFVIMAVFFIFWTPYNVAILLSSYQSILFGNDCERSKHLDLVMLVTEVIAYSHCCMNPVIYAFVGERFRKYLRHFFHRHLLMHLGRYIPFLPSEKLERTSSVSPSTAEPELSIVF
Briefly: CCR3 SPA-based receptor binding assay. Also noted: host or cells: Y3 cell line (rat), selected with G418. Particulars: [125I]-eotaxin competition, membranes from human CCR3 transfected Y3 cell line. Here is the method: CCR3 SPA-Based Receptor Binding Assay:
The procedure used was disclosed in Dairaghi et al, J. Biol. Chem., 272 (1997), pg. 28206-28209, and is described in detail below.
The source of the CCR3 receptors for this assay was purified membranes from a human CCR3 transfected Y3 cell line. Membranes were prepared by MDS Pharma Services (Bothell, Wash.) as follows. Cells were grown under selection (1 mg/ml G418) in 50-stack cube bioreactors with minimal media recirculation. Cells were harvested with trypsin and washed once with PBS. Cells were resuspended in 20 volumes of ice cold 2.5 mM Tris-HCl, pH 7.4 containing protease inhibitors (0.3 mM PMSF, 3 μg/ml aprotinin, 3 μg/ml luepeptin) and incubated on ice for 15 min. The swollen cells were lysed by vigorous vortexing and large debris was removed by centrifugation (1200 rpm, 5 min., 4° C.). The cleared lysate was subjected to ultra-centrifugation (100,000×g, 1 hr., 4° C.) to pellet the membrane fraction and the membrane fraction was resuspended in 25 mM HEPES, pH 7.6, 75 mM NaCl, 1 mM EDTA. Protease inhibitors were added as described above after a sample was removed for protein determination. The membrane preparation was brought to 6 to 10 mg/ml final concentration and BSA was added to 0.5%. Membranes were stored in 1 ml aliquots (−70° C.). […]

Experiment [2] deals with T1, human CCR3. Nature of the experiment: Intracellular calcium (Calcium flux, FLIPR) assay in CREM3 cells. It is filed as cell-based. More on the design: expressed in transfected cells; host or cells: CREM3 cells (rat Y3 cell line stably expressing human CCR3). Particulars: CREM3 cells (human CCR3 in rat Y3 cell line). Here is the method:
An IC50 value was interpolated from the dilution series for each compound and used to calculate a Ki value using the following equation: Ki=IC50/(1+[ligand]/Kd) Intracellular Calcium Assay: Cell Culture:
CREM3 cells, in which the human CCR3 receptor is stably expressed in the rat Y3 cell line, were cultured in DMEM high glucose containing 10% FBS, 50 U/ml penicillin, 50 μg/ml streptomycin, 2 mM L-glutamine, 1 mg/ml G418 (Gemini Bioproducts). Cells were cultured in fresh medium every 2 days.
Intracellular calcium levels were measured using a fluorometric imaging plate reader (FLIPR), (Molecular Devices, Sunnyvale Calif.) as described by the manufacturer. CREM3 cells were cultured overnight at 20,000 cells/well in 96 well black-wall clear bottom plates (Packard), precoated with 100 μg/ml poly D-lysine hydrobromide (Sigma). Adherent CREM3 cells were loaded with 4 μM Fluo-3 AM (Molecular Probes, Eugene, Oreg.), in pH 7.4 HBSS without phenol red, containing 20 mM HEPES, 0.5% FBS, 2.5 mM probenecid (Sigma), 0.04% pluronic acid (Molecular Probes) for 1 h at 37° C. […] Fluorescence data was collected at 1 s interval for 60 s, followed by collection at 2 s intervals for 60 s. Background fluorescence was quantitated in wells containing cells but no chemokines and was subtracted from all experimental samples. […]
A general note: Calcium flux is commonly read through the fluorescence of an indicator in the cells.

A word on the Ki: it is the equilibrium dissociation constant of an inhibitor or competing ligand from its target. A low value points to higher affinity. One may read the IC50 as the midpoint of a concentration-inhibition curve. `COc1ccc(C(=O)N2CCC(N3CC[C@@H](Cc4ccc(Cl)c(Cl)c4)[C@@H](CO)C3)CC2)c2cccnc12` (relative stereo) [Example 2-EE]: on human CCR3 [1], the affinity corresponds to a Ki of 2.8 nM. Moreover, the half-maximal inhibitory concentration (IC50) at human CCR3 [2] came to 3.6 nM.
